# Reference: US20250002460A1, “SORTILIN INHIBITORS” (SORTINA PHARMA AB, priority 2021, published 2025)
# Tested on: MDA-MB-231 breast cancer cell line
# Assay: Secondary sphere formation assay in MDA-MB-231
# Type: cell-based
# Conditions: MDA-MB-231, in combination with 500 nM progranulin, 48 hours
# Method: C-terminal Progranulin (progranulin) (Casio, peptide sequence: […], SEQ ID NO: 5) were reconstituted in sterile PBS upon delivery, aliquoted and stored at −20° C. Working stock concentrations were achieved by dilution in culture media. […] 5% CO2 and 21% O2 before performing the primary followed by secondary sphere formation assay.
# The sphere formation assay was performed as described previously (Mammary Gland Biol Neoplasia, 2012, 17(2): 111-117). Briefly, single cell suspensions were obtained following treatment with respective sortilin inhibitors SI1, SI5, SI8, SI25, SI32, SI39, SI51 and SI62 of the invention and seeded in phenol red-free DMEM/F-12 (Gibco®, Life Technologies), supplemented with 1% B27 supplement (Fisher Scientific, Invitrogen), 1% P/S and 20 ng/ml EGF (BD Biosciences) onto non-adherent polyhema-coated plates. After cultivation for five days, single cell suspensions were obtained from the primary spheres and seeded again in phenol red-free DMEM/F-12 supplemented with 1% B27 supplement, 1% P/S and 20 ng/ml EGF onto non-adherent polyhema-coated plates for 5-7 days. Subsequently, spheres greater than 50 μm in diameter were counted manually in the microscope.
row,Compound,progranulin induced secondary sphere formation
1,"Cc1nc(N(C)C)ncc1C(=O)NC(/C=C/C(C)(C)C)C(=O)O (racemic) [SI1, (E)-2-[2-(dimethylamino)-4-methyl-5-pyrimidinylcarbonylamino]-5,5-dimethyl-3-hexenoic acid]",reduced sphere formation

# Same assay, conditions: MDA-MB-231, without progranulin, 48 hours
row,Compound,"baseline sphere formation, compound used alone"
1,"Cc1nc(N(C)C)ncc1C(=O)NC(/C=C/C(C)(C)C)C(=O)O (racemic) [SI1, (E)-2-[2-(dimethylamino)-4-methyl-5-pyrimidinylcarbonylamino]-5,5-dimethyl-3-hexenoic acid]",reduced baseline sphere formation

# Target: T1, human sortilin (sSORT) (Homo sapiens, UniProt Q99523)
# T1 sequence (Q99523 78-756 limits assumed): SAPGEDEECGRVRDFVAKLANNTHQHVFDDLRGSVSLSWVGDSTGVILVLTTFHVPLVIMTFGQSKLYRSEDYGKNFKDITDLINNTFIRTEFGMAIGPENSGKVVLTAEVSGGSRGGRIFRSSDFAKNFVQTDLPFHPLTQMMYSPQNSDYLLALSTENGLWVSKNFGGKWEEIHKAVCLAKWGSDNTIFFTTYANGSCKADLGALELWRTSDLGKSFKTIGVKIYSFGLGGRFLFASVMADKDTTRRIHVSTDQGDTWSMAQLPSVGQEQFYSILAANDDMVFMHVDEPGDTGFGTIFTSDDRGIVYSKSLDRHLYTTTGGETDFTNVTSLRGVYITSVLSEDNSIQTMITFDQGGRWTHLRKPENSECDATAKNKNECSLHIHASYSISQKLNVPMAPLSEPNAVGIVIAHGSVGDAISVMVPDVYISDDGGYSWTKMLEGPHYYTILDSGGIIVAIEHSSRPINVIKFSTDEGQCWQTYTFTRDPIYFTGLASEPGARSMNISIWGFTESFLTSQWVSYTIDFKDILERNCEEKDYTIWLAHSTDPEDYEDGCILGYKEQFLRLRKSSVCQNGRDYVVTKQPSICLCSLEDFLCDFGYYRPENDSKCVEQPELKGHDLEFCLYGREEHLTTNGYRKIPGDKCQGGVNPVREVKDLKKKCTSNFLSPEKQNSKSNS
# Assay: Neurotensin competitive fluorescence polarization binding assay (FPA)
# Conditions: mean IC50 values for sortilin inhibitors, IC50 (nM), 100 nM sSORT, 10 nM Neurotensin-Ahx-FITC, 1 h room temperature
# Method: Fresh 0.1% bovine serum albumin (BSA) was added to the assay buffer to obtain the final concentration: 50 mM HEPES, pH 7.4; 100 mM NaCl; 2.0 mM CaCl2; 0.1% BSA; 0.1% TWEEN® 20. The sortilin inhibitors of the invention and reference compounds (see Table 1) analyzed in the screen and neurotensin (used as an assay control) were serially diluted in ten different concentrations in assay buffer. In each well of a Nunc® MaxiSorp™ 384-well plate (Sigma Aldrich), 100 nM sSORT was mixed with pre-diluted sortilin inhibitors and 10 nM Neurotensin-Ahx-FITC in assay buffer adjusted to contain 1% DMSO in a final volume of 20 μl. The plate was then briefly centrifuged prior to 1 h incubation at room temperature in the dark.
row,Compound,IC50 [nM]
1,"CN(C)c1nccc(C(=O)NC(/C=C/C(C)(C)C)C(=O)O)n1 (centres unmarked) [SI19, (E)-2-[2-(dimethylamino)-4-pyrimidinylcarbonylamino]-5,5-dimethyl-3-hexenoic acid]",851
2,"CC(C)(C)/C=C/C(NC(=O)C1CN(c2ccccn2)CCN1)C(=O)O (single isomer, unassigned) [SI3 diastereomer 1, (E)-5,5-dimethyl-2-[4-(2-pyridyl)-2-piperazinylcarbonylamino]-3-hexenoic acid]",135
3,"Cc1nc(N(C)C)ncc1C(=O)NC(/C=C/C(C)(C)C)C(=O)O (racemic) [SI1, (E)-2-[2-(dimethylamino)-4-methyl-5-pyrimidinylcarbonylamino]-5,5-dimethyl-3-hexenoic acid]",59
4,"CC(C)(C)/C=C/C(NC(=O)C1CN(c2ccncc2)CCN1)C(=O)O (single isomer, unassigned) [SI4 diastereomer 1, (E)-5,5-dimethyl-2-[4-(4-pyridyl)-2-piperazinylcarbonylamino]-3-hexenoic acid]",229
5,"CC(C)(C)/C=C/C(NC(=O)c1ccc(C(=O)C(F)(F)F)cc1)C(=O)O (centres unmarked) [SI2, (E)-5,5-dimethyl-2-[p-(2,2,2-trifluoroacetyl)benzoylamino]-3-hexenoic acid]",234
6,"Cc1cc(C(=O)NC(/C=C/C(C)(C)C)C(=O)O)nc(N(C)C)n1 (centres unmarked) [SI20, (E)-2-[2-(dimethylamino)-6-methyl-4-pyrimidinylcarbonylamino]-5,5-dimethyl-3-hexenoic acid]",1000
7,"Cn1nc(C(=O)NC(/C=C/C(C)(C)C)C(=O)O)cc1-c1ccc(Cl)c(Cl)c1 (centres unmarked) [SI61, (E)-2-[5-(3,4-dichlorophenyl)-1-methyl-3-pyrazolylcarbonylamino]-5,5-dimethyl-3-hexenoic acid]",117
8,"Cc1nc(N(C)C)ncc1C(=O)NC(CCC(C)(C)C)C(=O)O (centres unmarked) [RC1, 2-[2-(dimethylamino)-4-methyl-5-pyrimidinylcarbonylamino]-5,5-dimethylhexanoic acid, reference compound]",123
9,"CC(C)(C)/C=C/C(NC(=O)c1cccc(-n2cncn2)c1)C(=O)O (centres unmarked) [SI24, (E)-5,5-dimethyl-2-[m-(1H-1,2,4-triazol-1-yl)benzoylamino]-3-hexenoic acid]",52
10,"CC(C)(C)/C=C/C(NC(=O)c1ccc(Oc2cccc(Cl)c2)cc1)C(=O)O (centres unmarked) [SI54, (E)-2-[p-(m-chlorophenoxy)benzoylamino]-5,5-dimethyl-3-hexenoic acid]",158
11,"Cc1cc2[nH]c(C(=O)NC(/C=C/C(C)(C)C)C(=O)O)cc2cn1 (centres unmarked) [SI7, (E)-5,5-dimethyl-2-(6-methyl-1H-1,5-diazainden-2-ylcarbonylamino)-3-hexenoic acid]",89
12,"CC(C)(C)/C=C/C(NC(=O)c1ccc(COc2ccccc2)cc1)C(=O)O (centres unmarked) [SI55, (E)-5,5-dimethyl-2-[p-(phenoxymethyl)benzoylamino]-3-hexenoic acid]",116
13,"CC(C)(C)/C=C/C(NC(=O)c1cccc(-c2cccs2)c1)C(=O)O (centres unmarked) [SI52, (E)-5,5-dimethyl-2-[m-(2-thienyl)benzoylamino]-3-hexenoic acid]",31
14,"CC(C)(C)/C=C/C(NC(=O)C1CN(c2ccccn2)CCN1)C(=O)O (single isomer, unassigned) [SI3 diastereomer 2, (E)-5,5-dimethyl-2-[4-(2-pyridyl)-2-piperazinylcarbonylamino]-3-hexenoic acid]",339
15,"Cn1nc(-c2cccnc2)cc1C(=O)NC(/C=C/C(C)(C)C)C(=O)O (centres unmarked) [SI59, (E)-5,5-dimethyl-2-[1-methyl-3-(3-pyridyl)-5-pyrazolylcarbonylamino]-3-hexenoic acid]",316
16,"CC(C)Cc1cc(C(=O)NC(/C=C/C(C)(C)C)C(=O)O)n(C)n1 (centres unmarked) [SI9, (E)-2-(3-isobutyl-1-methyl-5-pyrazolylcarbonylamino)-5,5-dimethyl-3-hexenoic acid]",102
17,"Cn1cc(Cl)cc1C(=O)NC(/C=C/C(C)(C)C)C(=O)O (centres unmarked) [SI31, (E)-2-(4-chloro-1-methyl-2-pyrrolylcarbonylamino)-5,5-dimethyl-3-hexenoic acid]",71
18,"CC(C)(C)/C=C/C(NC(=O)C1CN(c2ccncc2)CCN1)C(=O)O (single isomer, unassigned) [SI4 diastereomer 2, (E)-5,5-dimethyl-2-[4-(4-pyridyl)-2-piperazinylcarbonylamino]-3-hexenoic acid]",912
19,"CC(C)(C)/C=C/C(NC(=O)c1cc(Br)c[nH]1)C(=O)O (centres unmarked) [SI28, (E)-2-(4-bromo-2-pyrrolylcarbonylamino)-5,5-dimethyl-3-hexenoic acid]",55

# Continued, values first:
row,IC50 [nM],Compound
1,56,"CC(C)(C)/C=C/C(NC(=O)c1ccc(Oc2cccnc2)cc1)C(=O)O (centres unmarked) [SI34, (E)-5,5-dimethyl-2-[p-(3-pyridyloxy)benzoylamino]-3-hexenoic acid]"
2,45,"Cn1nc(Cl)cc1C(=O)NC(/C=C/C(C)(C)C)C(=O)O (centres unmarked) [SI57, (E)-2-(3-chloro-1-methyl-5-pyrazolylcarbonylamino)-5,5-dimethyl-3-hexenoic acid]"
3,158,"CC(C)(C)/C=C/C(NC(=O)c1ccc(-n2cnnc2)cc1)C(=O)O (centres unmarked) [SI23, (E)-5,5-dimethyl-2-[p-(4H-1,2,4-triazol-4-yl)benzoylamino]-3-hexenoic acid]"
4,95,"CCn1nc(CC(C)C)cc1C(=O)NC(/C=C/C(C)(C)C)C(=O)O (centres unmarked) [SI56, (E)-2-(1-ethyl-3-isobutyl-5-pyrazolylcarbonylamino)-5,5-dimethyl-3-hexenoic acid]"
5,80,"CC(C)(C)/C=C/C(NC(=O)c1ccc(Cl)[nH]1)C(=O)O (centres unmarked) [SI29, (E)-2-(5-chloro-2-pyrrolylcarbonylamino)-5,5-dimethyl-3-hexenoic acid]"
6,668,"CC(C)(C)/C=C/C(NC(=O)c1cccc(-n2cnnc2)n1)C(=O)O (centres unmarked) [SI50, (E)-5,5-dimethyl-2-[6-(4H-1,2,4-triazol-4-yl)-2-pyridylcarbonylamino]-3-hexenoic acid]"
7,158,"CC(C)(C)/C=C/C(NC(=O)c1cnc(Oc2ccccc2)nc1)C(=O)O (centres unmarked) [SI44, (E)-5,5-dimethyl-2-(2-phenoxy-5-pyrimidinylcarbonylamino)-3-hexenoic acid]"
8,62,"CC(C)(C)/C=C/C(NC(=O)c1cccc(-n2cnnc2)c1)C(=O)O (centres unmarked) [SI6, (E)-5,5-dimethyl-2-[m-(4H-1,2,4-triazol-4-yl)benzoylamino]-3-hexenoic acid]"
9,149,"CN(C)c1ncc(C(=O)NC(/C=C/C(C)(C)C)C(=O)O)cn1 (centres unmarked) [SI17, (E)-2-[2-(dimethylamino)-5-pyrimidinylcarbonylamino]-5,5-dimethyl-3-hexenoic acid]"
10,5,"CC(C)(C)/C=C/C(NC(=O)c1ccc(Oc2ccccc2)nc1)C(=O)O (single isomer, unassigned) [SI (active enantiomer), (E)-5,5-dimethyl-2-(6-phenoxynicotinoylamino)-3-hexenoic acid]"
11,9,"Cc1nc(N(C)C)ncc1C(=O)NC(/C=C/C(C)(C)C)C(=O)O (single isomer, unassigned) [SI1 (active enantiomer), (E)-2-[2-(dimethylamino)-4-methyl-5-pyrimidinylcarbonylamino]-5,5-dimethyl-3-hexenoic acid]"
12,148,"CC(C)(C)/C=C/C(NC(=O)c1ccc(Oc2ccc(Cl)cc2)cc1)C(=O)O (centres unmarked) [SI53, (E)-2-[p-(p-chlorophenoxy)benzoylamino]-5,5-dimethyl-3-hexenoic acid]"
13,28,"CC(C)(C)CC[C@H](NC(=O)c1ccc(Oc2ccccc2)nc1)C(=O)O [RC2 (active enantiomer), (S)-5,5-dimethyl-2-(6-phenoxynicotinoylamino)hexanoic acid, reference compound]"

# Same assay, conditions: read-out: mean IC50 values for sortilin inhibitors, IC50; 100 nM sSORT, 10 nM Neurotensin-Ahx-FITC, 1 h room temperature
row,IC50 [nM],Compound
1,68,"(E)-2-(2-isopropyl-4-methyl-5-pyrimidinylcarbonylamino)-5,5-dimethyl-3-hexenoic acid [SI49]"
